Six compounds from patent EP0091796A1, “Process for removing 1-sulfonyl groups from benzimidazoles” (ELI LILLY AND COMPANY, priority 1982, dated 1983) can be followed below.

The series in a line: pKa determination in 66% DMF/H2O. To be noted: for pKa: 66% dmf/h2o; for pK: solvent not given.

What is called pKa is the pH at which an ionisable group is half protonated. Lower therefore signals a stronger acid or weaker base. The compound `CON=C(c1ccccc1)c1ccc2nc(N)[nH]c2c1` [Example 1, 2-amino-5(6)-methoximephenylbenzimidazole] gave a pKa (single or first (lower) pKa) of 8.88. `CC=C(c1ccccc1)c1ccc2nc(N)[nH]c2c1` [Example 2, 2-amino-5(6)-(ethylidenebenz^yl)benzimidazole] yielded a pKa (single or first (lower) pKa) of 6.98. Still for that read-out and setting: as for `C/C=C(\c1ccccc1)c1ccc2nc(N)[nH]c2c1` [Example 3, trans-2-amino-5(6)-(ethylidenebenzyl)benzimidazole], the figure is 7.05; as for `C=C(c1ccccc1)c1ccc2nc(N)[nH]c2c1` [Example 6, 2-amino-5(6)-(methylidenebenzyl)benzimidazole], 6.8. Take `Nc1nc2cc(C(=O)c3ccccc3)ccc2[nH]1` [Example 7, 2-amino-5(6)-benzoylbenzimidazole]: the pK runs as follows: (first (lower) printed value) 5.65; (second (higher) printed value) 13.0. Take `Nc1nc2ccc(C(=O)c3ccccc3)cc2[nH]1` [Example 8, 2-amino-5(6)-benzoylbenzimidazole]: the pKa was 13.2 (second (higher) printed pKa) and 5.7 (single or first (lower) pKa).
